Laboratory results reported in patent publication US6518014B1, “Hepadnavirus cores” (priority 1996, dated 2003).
*1 amine or outer side, *2 acyl side, *3 side chain or, on linkers, in order; H or OH if unused. Where a SMILES comes first, the peptide text is derived from it. Bridges are numbered along the chain shown (N, C = ends). Roman numbers before positions name the chains, in order. [ ]: non-standard residue; d: D form. Actinocin(9to1) = Cc1c2oc3c(C)ccc(C(=O)[*:1])c3nc-2c(C(=O)[*:2])c(N)c1=O; NMeV = CN[C@H](C(=O)O)C(C)C; Sar = CNCC(=O)O

Key:
[1] = molecular target: T1, hepadnavirus polymerase (Hepatitis B virus genotype D subtype ayw, UniProt P03156); assay: In vitro polymerase activity of isolated core particles in the presence of Actinomycin D; type: biochemical; settings: 100 μg/ml Actinomycin D; (−) strand synthesis from an RNA template
T1 construct: made in house; host or cells: Spodoptera frugiperda SF9 cells infected with recombinant baculoviruses (pVL1393-derived)
T1 sequence (P03156 whole entry): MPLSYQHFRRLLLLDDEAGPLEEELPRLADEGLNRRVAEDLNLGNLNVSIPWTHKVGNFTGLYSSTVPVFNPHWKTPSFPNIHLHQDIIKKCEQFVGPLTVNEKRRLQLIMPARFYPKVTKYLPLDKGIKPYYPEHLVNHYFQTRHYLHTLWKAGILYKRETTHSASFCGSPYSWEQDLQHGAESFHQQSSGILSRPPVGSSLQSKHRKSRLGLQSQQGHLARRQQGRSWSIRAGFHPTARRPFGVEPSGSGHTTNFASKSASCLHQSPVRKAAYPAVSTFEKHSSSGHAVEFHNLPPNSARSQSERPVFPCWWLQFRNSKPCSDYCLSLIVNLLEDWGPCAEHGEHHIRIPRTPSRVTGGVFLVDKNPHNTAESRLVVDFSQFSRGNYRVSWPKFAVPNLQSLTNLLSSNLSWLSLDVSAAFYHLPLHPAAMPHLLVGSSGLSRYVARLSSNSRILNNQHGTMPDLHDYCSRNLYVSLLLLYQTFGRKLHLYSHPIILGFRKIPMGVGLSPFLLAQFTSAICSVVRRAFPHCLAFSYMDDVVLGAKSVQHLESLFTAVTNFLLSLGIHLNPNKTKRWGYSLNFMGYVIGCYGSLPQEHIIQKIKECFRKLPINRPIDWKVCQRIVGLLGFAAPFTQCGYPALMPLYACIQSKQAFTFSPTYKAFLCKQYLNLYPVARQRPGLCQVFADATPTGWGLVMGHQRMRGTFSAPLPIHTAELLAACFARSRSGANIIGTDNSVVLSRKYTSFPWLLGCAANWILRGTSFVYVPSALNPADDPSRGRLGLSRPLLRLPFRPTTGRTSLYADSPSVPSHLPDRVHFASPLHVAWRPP
Source text: This observation further confirms that the primary activity observed is the (−) strand synthesis from an RNA template. Site-directed mutagenesis has been used to change an tyr-met-asp-asp (SEQ ID NO:16) sequence in the HBV polymerase active site to a tyr-met-his-ala (SEQ ID NO:17) sequence, a mutation that has been previously shown to destroy polymerase activity. See, for example, Seifer and Strandring, Intervirology 38:295-303,1995; Wang & Seeger, Cell 71:663-670, 1992. For an analogous active site mutation, see Radziwill et al., J. Virol. 64:613-620,1990. When this mutant is used in the methods of the invention to create core particles, the core particles lack polymerase activity. This observation confirms that it is indeed hepadnavirus polymerase activity that is being observed in the core particles of the invention.
A 96 well plate was prepared with wells containing either various dilutions of test sample containing a prospective bioactive agent, a positive control, a known hepadnavirus polymerase inhibitor, or an EDTA sample for which no polymerase activity should be detected and which thus indicates, after the assay processing, non-specific, background radioactivity. The plate has eight rows of wells, A through H, and twelve columns of wells, 1 through 12. […]
The background radioactivity determined from column 12, wells E through H, was subtracted from all of the remaining values. […]

[2] = molecular target: T1, hepadnavirus polymerase; assay: Endogenous polymerase assay (EPA) with size analysis of endogenously labeled DNA from nucleocapsids, actinomycin D comparative sample; type: biochemical; settings: 80-100 μg per ml actinomycin D in comparative sample
Protocol: The beads were resuspended in 50 μl EPA reaction mix (50 mM Tris-HCl, pH 7.4, 75 mM NH4Cl, 1 mM EDTA, 20 mM MgCl2, 0.1 mM β-mercaptoethanol, 0.5% Tween 20, 50 μM dNTP mix (Ultrapure, Pharmacia, Uppsala, Sweden)), and the resulting suspension was incubated at 37° C. for 6 h.
The beads were washed once with 800 μl IP wash buffer (50 mM Tris-HCl, pH 7.4, 150 mM NaCl, 5 mM EDTA, 1% Triton-X 100, 0.02% SDS) and resuspended in 50 μl TNE (10 mM Tris-HCl, pH 7.4, 150 mM NaCl, 1 mM EDTA) containing 1% SDS and 10 mM dithiothreitol. The beads were then heated to boiling temperature (100 C) for 7 min to disintegrate the capsids, and the supernates isolated by centrifugation and transferred to microfuge cups, with the supemates from […] parallel reactions combined in each microfuge cup. […]
The synthesis that is actinomycin D sensitive is measured with the above-described EPA assay where 80-100 μg per ml of actinomycin D are added in a comparative sample.
SF9 cells were harvested 90 hours postinfection with recombinant viruses (a) BV-ECPE, (b) BV-EC+BV-PDE, (c) BV-EC and (d) BV-PDE. […] Immunoprecipitated core particles were subjected to EPA as described above, and deproteinized nucleic acids isolated from the assay samples were analyzed on a 1% agarose gel, and visualized by autoradiography. […]

`Cc1c2oc3c(C)ccc(C(=O)N[C@@H]4C(=O)N[C@H](C(C)C)C(=O)N5CCC[C@H]5C(=O)N(C)CC(=O)N(C)[C@@H](C(C)C)C(=O)O[C@@H]4C)c3nc-2c(C(=O)N[C@@H]2C(=O)N[C@H](C(C)C)C(=O)N3CCC[C@H]3C(=O)N(C)CC(=O)N(C)[C@@H](C(C)C)C(=O)O[C@@H]2C)c(N)c1=O` [Actinomycin D] (I: T[dV]P[Sar][NMeV] / II: T[dV]P[Sar][NMeV]; ester I:1-I:C, II:1-II:C; linker I:N-II:N via Actinocin(9to1)) was tested, and the “polymerase activity exhibited by core particles in the presence of Actinomycin D” value [1] was “active”, the “actinomycin D sensitivity of EPA product nucleic acids, trans cores” value ([2]; BV-EC+BV-PDE (trans) cores from SF9 cells) was “not the trans products” and the “actinomycin D sensitivity of EPA product nucleic acids, cis cores” value ([2]; BV-ECPE (cis) cores from SF9 cells) was “mostly actinomycin D sensitive”.
